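Briefly, cells in 96-well plates were exposed to five compound concentrations for 48 h, and endpoints were estimated by linear interpolation. The concentration for 50% growth inhibition is given as GI50.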 Activity calls are given as the source filed them. No stated cut-off is given here; in the data, active = GI50 up to about 1.1 µM and inactive = higher.
Tests used:
Test in all cases: inhibition of tumour cell growth, NCI panel, 48 h
UO-31 = system: UO-31
NCI-H460 = system: NCI-H460
SF-268 = system: SF-268
SN12C = system: SN12C
SK-MEL-5 = system: SK-MEL-5
MDA-N = system: MDA-N
HOP-92 = system: HOP-92
LOX IMVI = system: LOX IMVI
OVCAR-3 = system: OVCAR-3
UACC-62 = system: UACC-62
DU-145 = system: DU-145
OVCAR-8 = system: OVCAR-8
SNB-75 = system: SNB-75
PC-3 = system: PC-3
Hs-578T = system: Hs-578T
TK-10 = system: TK-10
ACHN = system: ACHN
A498 = system: A498
SK-MEL-28 = system: SK-MEL-28

Structure (SMILES) | GI50 (UO-31) | GI50 (NCI-H460) | GI50 (SF-268) | GI50 (SN12C) | GI50 (SK-MEL-5) | GI50 (MDA-N) | GI50 (HOP-92) | GI50 (LOX IMVI) | GI50 (OVCAR-3) | GI50 (UACC-62) | GI50 (DU-145) | GI50 (OVCAR-8) | GI50 (SNB-75) | GI50 (PC-3) | GI50 (Hs-578T) | GI50 (TK-10) | GI50 (ACHN) | GI50 (A498) | GI50 (SK-MEL-28)
COC1=CC(=O)c2c(cc(COP(=O)(OCC3OC(n4cc(F)c(=O)[nH]c4=O)CC3O)N(C)CCCCCl)n2C)C1=O (configuration not stated) | 0.0605 µM (active) | < 0.01 µM (active) | < 0.01 µM (active) | < 0.0248 µM (active) | 0.0329 µM (active) | 0.41 µM (active) | 0.137 µM (active) | 0.0148 µM (active) | 1.2 µM (inactive) | 0.0736 µM (active) | 0.321 µM (active) | 0.0593 µM (active) | < 0.0124 µM (active) | 0.173 µM (active) | 0.0877 µM (active) | 1.81 µM (inactive) | < 0.01 µM (active) | – | –
N#Cc1c(-c2ccccc2)c(C#N)c(=S)n(C2OC(CO)C(O)C(O)C2O)c1O (configuration not stated) | > 100 µM (inactive) | > 100 µM (inactive) | > 100 µM (inactive) | > 100 µM (inactive) | > 100 µM (inactive) | > 100 µM (inactive) | – | > 100 µM (inactive) | > 100 µM (inactive) | > 100 µM (inactive) | > 100 µM (inactive) | > 100 µM (inactive) | > 100 µM (inactive) | > 100 µM (inactive) | > 100 µM (inactive) | > 100 µM (inactive) | > 100 µM (inactive) | > 100 µM (inactive) | > 100 µM (inactive)
CCOC(=O)c1c(N2CCCC2)nsc1Nc1ccccc1 | 27.5 µM (inactive) | > 100 µM (inactive) | > 100 µM (inactive) | > 100 µM (inactive) | > 100 µM (inactive) | > 100 µM (inactive) | 40.6 µM (inactive) | > 100 µM (inactive) | – | – | > 100 µM (inactive) | > 100 µM (inactive) | > 100 µM (inactive) | > 100 µM (inactive) | 60 µM (inactive) | > 100 µM (inactive) | > 100 µM (inactive) | > 100 µM (inactive) | > 100 µM (inactive)
C[C@]12CC[C@H](O)CC1=CC[C@@H]1[C@@H]2CC[C@]2(C)C(=O)/C(=C/c3ccc([N+](=O)[O-])cc3)C[C@@H]12 | 11 µM (inactive) | 23.8 µM (inactive) | 6.85 µM (inactive) | 11.2 µM (inactive) | 16.3 µM (inactive) | 51.5 µM (inactive) | 9.16 µM (inactive) | 10 µM (inactive) | 15.2 µM (inactive) | 65 µM (inactive) | 13.4 µM (inactive) | 3.15 µM (inactive) | 3.52 µM (inactive) | 10.4 µM (inactive) | 7.83 µM (inactive) | – | 13.2 µM (inactive) | 13.5 µM (inactive) | 22.1 µM (inactive)
CC1(C)C2CC(c3ccncc3)ON2C(C)(C)N1O (configuration not stated) | > 100 µM (inactive) | > 100 µM (inactive) | > 100 µM (inactive) | > 100 µM (inactive) | > 100 µM (inactive) | > 100 µM (inactive) | > 100 µM (inactive) | > 100 µM (inactive) | > 100 µM (inactive) | > 100 µM (inactive) | > 100 µM (inactive) | > 100 µM (inactive) | > 100 µM (inactive) | > 100 µM (inactive) | > 100 µM (inactive) | > 100 µM (inactive) | > 100 µM (inactive) | – | > 100 µM (inactive)
Clc1ccc(C2Nc3ccccc3C3=NCCN32)cc1 (configuration not stated) | 27.3 µM (inactive) | 16.3 µM (inactive) | 20.7 µM (inactive) | 29.8 µM (inactive) | 15.7 µM (inactive) | 17.4 µM (inactive) | 8.18 µM (inactive) | 17.2 µM (inactive) | 33.5 µM (inactive) | 16.9 µM (inactive) | 39.8 µM (inactive) | 18.3 µM (inactive) | – | 55.3 µM (inactive) | 33.3 µM (inactive) | 16.8 µM (inactive) | 35.3 µM (inactive) | 22.9 µM (inactive) | 18 µM (inactive)
Clc1cccc(/N=C/C=C/Nc2cccc(Cl)c2)c1 | 16 µM (inactive) | 17.7 µM (inactive) | > 10 µM (inactive) | 14 µM (inactive) | 16.8 µM (inactive) | 13.9 µM (inactive) | 42.5 µM (inactive) | 6.32 µM (inactive) | 18.3 µM (inactive) | – | 29 µM (inactive) | 18 µM (inactive) | > 10 µM (inactive) | 15.1 µM (inactive) | 29.8 µM (inactive) | 37.8 µM (inactive) | > 10 µM (inactive) | 22.9 µM (inactive) | 16.1 µM (inactive)
C[n+]1c(-c2ccc(/C=N\N3CCN(/N=C/c4ccc(-c5cn6ccccc6[n+]5C)cc4)CC3)cc2)cn2ccccc21 | > 100 µM (inactive) | 58.6 µM (inactive) | 48.2 µM (inactive) | 54.5 µM (inactive) | 17.8 µM (inactive) | 36.2 µM (inactive) | 26.4 µM (inactive) | > 100 µM (inactive) | > 100 µM (inactive) | 33.7 µM (inactive) | 34.4 µM (inactive) | > 100 µM (inactive) | 39.4 µM (inactive) | > 100 µM (inactive) | 29.3 µM (inactive) | 63.4 µM (inactive) | 45.1 µM (inactive) | 16.2 µM (inactive) | –

— ChEMBL document CHEMBL1201862, “PubChem BioAssay data set” (2004)
